Results reported in patent US10562891B2, “Quinazolinones as PARP14 inhibitors” (Ribon Therapeutics Inc., priority 2017, dated 2020).
Where a name gives a salt, the structure may show the parent alone.

Molecular target: catalytic domain of human PARP14 (Homo sapiens (Human), UniProt Q460N5)
Assay: Enzymatic assay for inhibition of PARP14 (DELFIA, auto-modification with biotin-NAD)
Format: biochemical
Conditions: auto-modification of PARP14 by biotin-NAD, 50 nM PARP14, 3 μM biotin-NAD
In short: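 DELFIA auto-modification read-out: europium-streptavidin bound to biotin-NAD incorporated onto nickel-captured His-TEV PARP14 catalytic domain. Compound preincubated 30 min, then 50 nM enzyme with 3 μM biotin-NAD reacted 3 h, all at 25 °C, pH 8, then NAD quench. Percent inhibition normalized to rucaparib/DMSO wells, fitted (4- or 3-parameter) for IC50.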

Sequence of catalytic domain of human PARP14 (Q460N5 1611-1801): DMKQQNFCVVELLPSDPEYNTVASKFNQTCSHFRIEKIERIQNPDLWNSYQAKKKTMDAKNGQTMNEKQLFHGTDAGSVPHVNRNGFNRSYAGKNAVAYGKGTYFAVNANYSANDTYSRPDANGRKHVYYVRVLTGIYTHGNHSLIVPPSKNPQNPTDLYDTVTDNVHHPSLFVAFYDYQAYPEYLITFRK

IC50 [µM] | Structure (SMILES)
1 to 10 | CNc1ccc2c(=O)[nH]c(CSC3CCOCC3)nc2c1 [Example 110, 7-(Methylamino)-2-(((tetrahydro-2H-pyran-4-yl)thio)methyl)quinazolin-4(3H)-one]
< 1 | O=c1[nH]c(CSC2CCN(C3COC3)CC2)nc2cc(NC3CCCC3)cc(F)c12 [Example 255, 7-(Cyclopentylamino)-5-fluoro-2-(((1-(oxetan-3-yl)piperidin-4-yl)thio)methyl)quinazolin-4(3H)-one]
> 10 | CN1CCC(Nc2ccc3c(=O)[nH]c(CSC4CCOCC4)nc3c2)CC1 [Example 113, 7-((1-Methylpiperidin-4-yl)amino)-2-(((tetrahydro-2H-pyran-4-yl)thio)methyl)quinazolin-4(3H)-one]
1 to 10 | CC(C)Cc1ccc2c(=O)[nH]c(CSC3CCOCC3)nc2c1 [Example 202, 7-Isobutyl-2-(((tetrahydro-2H-pyran-4-yl)thio)methyl)quinazolin-4(3H)-one]
< 1 | CCO[C@H]1C[C@@H](Nc2cc3nc(CSC4CCOCC4)[nH]c(=O)c3c(F)c2F)C1 [Example 331, 7-(((cis)-3-Ethoxycyclobutyl)amino)-5,6-difluoro-2-(((tetrahydro-2H-pyran-4-yl)thio)methyl)quinazolin-4(3H)-one]

The remaining lines, values behind:

Structure (SMILES) | IC50 [µM]
Cc1cccc2c(=O)[nH]c(CSC3CCN(C(=O)CCN)CC3)nc12 [Example 167, 2-(((1-(3-Aminopropanoyl)piperidin-4-yl)thio)methyl)-8-methylquinazolin-4(3H)-one Hydrochloride] | 1 to 10
O=c1[nH]c(CSC2CCOCC2)nc2cc(OCC3CCCOC3)cc(F)c12 (stereo not drawn) [Example 319, 5-Fluoro-7-((tetrahydro-2H-pyran-3-yl)methoxy)-2-(((tetrahydro-2H-pyran-4-yl)thio)methyl)quinazolin-4(3H)-one] | < 1
O=c1[nH]c(CS[C@H]2CC[C@H](O)CC2)nc2cc(NCC3CC3)cc(F)c12 [Example 271, 7-((Cyclopropylmethyl)amino)-5-fluoro-2-(((trans-4-hydroxycyclohexyl)thio)methyl)quinazolin-4(3H)-one] | < 1
O=c1[nH]c(CS[C@@H]2CCNC[C@H]2F)nc2cc(NC3CCCC3)cc(F)c12 [Example 211b, 7-(Cyclopentylamino)-5-fluoro-2-((((3R,4R)-3-fluoropiperidin-4-yl)thio)methyl)quinazolin-4(3H)-one] | < 1
O=c1[nH]c(CS[C@H]2CCNC[C@H](F)C2)nc2cc(NC3CCCC3)cc(F)c12 (relative stereo) [Example 240, 7-(Cyclopentylamino)-5-fluoro-2-(((trans-6-fluoroazepan-4-yl)thio)methyl)quinazolin-4(3H)-one] | < 1
Cc1cccc2c(=O)[nH]c(CS[C@H]3CC[C@H](C(N)=O)CC3)nc12 [Example 205, trans-4-(((8-Methyl-4-oxo-3,4-dihydroquinazolin-2-yl)methyl)thio)cyclohexane-1-carboxamide] | < 1
NC[C@]1(F)CC[C@@H](SCc2nc3cc(NC4CCCC4)cc(F)c3c(=O)[nH]2)CC1 [Example 243, 2-(((trans-4-(Aminomethyl)-4-fluorocyclohexyl)thio)methyl)-7-(cyclopentylamino)-5-fluoroquinazolin-4(3H)-one Trifluoroacetate] | < 1
Cc1cc(NCC2CC2(F)F)cc2nc(CSC3CCNCC3)[nH]c(=O)c12 (stereo not drawn) [Example 284, 7-(((2,2-Difluorocyclopropyl)methyl)amino)-5-methyl-2-((piperidin-4-ylthio)methyl)quinazolin-4(3H)-one hydrochloride] | < 1
C[C@]1(O)C[C@@H](COc2cc(F)c3c(=O)[nH]c(CSC4CCOCC4)nc3c2)C1 [Example 386] | < 1
O=c1[nH]c(CSC2CCNCC2)nc2cc(NC3CCCC3)c(F)cc12 [Example 226, 7-(Cyclopentylamino)-6-fluoro-2-((piperidin-4-ylthio)methyl)quinazolin-4(3H)-one hydrochloride] | < 1
